Measurements taken from patent publication US20250368629A1, “FLAVONOID COMPOUNDS AND METHODS AND MATERIALS FOR USING FLAVONOID COMPOUNDS TO TREAT FIBROTIC CONDITIONS” (Mayo Foundation for Medical Education and Research, priority 2022, published 2025).

Tests used:
[1] = system: senescent human adult lung fibroblasts; test: Apoptosis of senescent lung fibroblasts (cleaved caspase-3, DAPI); assay type: cell-based; settings: Fibroblast; replicatively senescent human adult lung fibroblasts, 96 hours, 6-point dose-response, N=3
Protocol: Human adult lung fibroblasts were replicatively passaged until senescence (confirmed by RNA and senescence associated beta galactosidase staining). In a parallel experiment, low passage proliferating fibroblasts from the same donor were compared. Cells were plated into 96-well plates and treated with the indicated compound (6-point dose-response) and incubated for 96 hours. Cells were then fixed using 4% PFA, permeabilized using 0.25% triton x-100, and nuclear stained using a primary antibody for cleaved caspase-3, secondary fluorescence conjugated antibody, and DAPI. Cells were then imaged using a 4× objective on a Cytation5 microscope and cell counts were quantified using automated software (Biotek Gen5). Data shown are the EC50 values calculated for each compounds efficacy to induce apoptosis in senescence vs. proliferating lung fibroblasts, from the calculated dose-response curves, N=3 independent experiments.

~400 kinases = test: Kinome screen (Reaction Biology wild-type kinase panel, ATP competition assay); assay type: biochemical; settings: 1 μM, Z-scores
Protocol: FIG. 4A. F-4N was sent to Reaction Biology to be tested against their entire wild-type kinase panel. 1 μM F-4N was tested in an ATP competition assay against 420+ kinases. Z-scores were calculated to identify true hits over noise.
Kinome screening was used to test F-4N (1 μM) against ˜400 kinases.

in vitro = in vitro ADME; settings: rat
Protocol: Plasma protein binding assays were also performed (Table 2). Compounds were incubated with rat plasma for 4 hours. The percent of F-4N recovered was analyzed by LC-MS. Warfarin was used as a control for a compound with high plasma protein binding. Analysis performed by Cyprotex (Framingham, MA).

[2] = Stability in human plasma; assay type: in vitro ADME
Protocol: The stability of F-4N in plasma was assessed (FIG. 27). Compounds were incubated with human or mouse plasma. The percent of F-4N recovered was analyzed by LC-MS. Warfarin was used as a control for stable compound, and propantheline was used as a control for an unstable compound. Analysis was performed by Cyprotex (Framingham, MA).

[3] = system: 10-18-month-old C57/B6 mice; test: Non-resolving model of lung fibrosis (bleomycin, aged mice); assay type: in vivo, mouse
Protocol: FIG. 3. Lung fibrosis was induced in 10-18-month-old C57/B6 mice (average ˜15-months) using intratracheal bleomycin (1.1 units/kg) on day 0 of the study. On day 14 one group was administered F-4N (10 mg/kg daily i.p.) for 14 days prior to harvesting the lung for outcomes and senescence clearance and fibrosis. Lung architecture and fibrosis were observed by trichome histological staining and hydroxyproline content. Hydroxyproline content was measured using a hydroxyproline assay kit (Biovision) according to the manufacturer's instructions with slight modification. The lung tissues were weighed, homogenized in sterile water (10 mg of tissue per 100 μL H2O) and hydrolyzed in 12 M HCl in a pressure-tight, Teflon capped vial at 120° C. for 3 hours followed by filtration through a 45 μm Spin-X Centrifuge Tube filter (Corning). Ten μL of the hydrolyzed samples was dried in a Speed-Vac for 2 hours, followed by incubation with 100 μL of Chloramine T reagent for 5 minutes at room temperature and 100 μL of 4-(Dimethylamino)benzaldehyde (DMAB) for 90 minutes at 60° C. The absorbance of oxidized hydroxyproline was determined at 560 nm. Hydroxyproline concentrations were calculated from a standard curve generated using known concentrations of trans-4-hydroxyl-L-proline. The total amount of protein isolated from the weighed tissues was determined by using a protein assay kit (Bio-Rad, absorbance at 595 nm). The amount of collagen was expressed in μg/mg total protein. qPCR: RNA isolation using RNeasy Plus Mini Kit (Qiagen) according to the manufacturer's instructions. Isolated RNA (250 ng) was then used to synthesize cDNA using SuperScript VILO (Invitrogen). Quantitative PCR was performed using FastStart Essential DNA Green Master (Roche) and analyzed using a LightCycler 96 (Roche). Data are expressed as a fold change by ΔΔCt relative to glyceraldehyde-3-phosphate dehydrogenase (GAPDH).

mouse model of NASH = test: Mouse model of NASH (CD-HFD); assay type: in vivo; settings: 10 mg/kg daily i.p. for 2 weeks
Protocol: FIGS. 20A-20D show the efficacy of F-4N in a mouse model of NASH. FIG. 20A) Study design and weight changes of mice treated with 10 mg/kg F-4N daily i.p. for 2 weeks. FIG. 20B). Representative H&E and Sirius Red liver histology. FIG. 20C) Objective automated quantification of Sirius Red staining. FIG. 20D) Liver weight and colon weight changes. N=5 chow diet, N=10 holine deficient-high fat diet (CD-HFD) vehicle, N=10 CD-HFD+F-4N.
Mice in a mouse model of NASH were treated with 10 mg/kg F-4N daily i.p. for 2 weeks (FIG. 20A). Livers from treated mice were analyzed by H&E and Sirius Red staining (FIG. 20B). Sirius Red staining was quantified (FIG. 20C). Liver weight and colon weight changes were also assessed (FIG. 20D).

[4] = system: mice with intratracheal bleomycin injury; test: Acute exposure bleomycin dose-finding study; assay type: in vivo, mouse
Protocol: On day 1 mice received intratracheal sham or bleomycin injury. On day 7 mice were divided into groups and treated daily with vehicle, 10, 30, or 100 mg/kg F-4N by oral gavage for 7 days. On day 14 organs and plasma were collected. Weight changes were measured throughout the experiment (FIG. 24B). Whole lung RNA expression of profibrotic genes as also examined (FIG. 24C). […] F-4N efficacy biomarkers were identified. RNA was collected from vehicle treated mice and from mice treated with 30 mg/kg F-4N. RNA was analyzed using the RT2 Profiler PCR array (Qiagen Catalog No.—330231) which measures expression of 89 different cytokines and chemokines. […] A level of genes whose expression is altered in response to F-4N can be used as a biomarker for F-4N efficacy.

[5] = Levels of unbound compound in plasma and liver of mice (LC-MS); assay type: in vivo, mouse; settings: 2 hours and 8 hours after the final dose, oral gavage 7 days
Protocol: Levels of F-4N in the plasma and liver of mice following F-4N exposure were examined (FIG. 26). Plasma and liver tissue was collected 2 hours and 8 hours after the final dose from the mice subjected to the protocol described in FIG. 24A. Levels of unbound (free) F-4N were analyzed by Cyprotex (Framingham, MA) using LC-MS.

[6] = 10 mg/kg daily i.p. for 14 days
[7] = 10 mg/kg daily i.p. for 14 days, qPCR
[8] = 30 and 100 mg/kg daily oral gavage, 7 days

O=c1c(O)c(-c2ccc(OCc3ccncc3)cc2)oc2ccccc12 [F—4N]
EC50 [1]: 800 nM | Putative targets identified by kinome screening (~400 kinases): STK17A (also known as DRAK1), STK17B (also known as DRAK2), and MYLK4, AURKB, FLT3, and KIT | recovery at 4 h, 5 μM (in vitro): 100% | Plasma bound (in vitro; 4 h, 5 μM): 99% | plasma protein binding (in words) (in vitro; plasma): high | Plasma unbound (in vitro; plasma, 4 h, 5 μM): 0.94% | stability in plasma (percent recovered, LC-MS) [2]: stable | fibrosis and lung architecture by trichrome histological staining [3, 6]: less fibrosis and improved lung architecture | lung hydroxyproline content [3, 6]: reduced | whole lung expression of Collagen I [3, 7]: reduced expression | whole lung expression of senescence markers (Cdkn2a, Cdkn1a, Ccl2) [3, 7]: reduced expression | survival following bleomycin-induced fibrosis ([3]; 10 mg/kg daily i.p. from day 14): improved survival | efficacy in NASH model (histology, Sirius Red, liver weight, liver function, triglyceride, hydroxyproline) (mouse model of NASH): effective to treat NASH | liver expression of profibrotic genes, inflammatory genes, and Stk17b (qPCR) (mouse model of NASH): effectively reduced expression | number of genes with reduced expression (RT2 Profiler PCR array of 89 cytokines and chemokines) ([4]; 30 mg/kg, after 7 days of treatment): 11 genes | weight change [4, 8]: improved weight change | whole lung RNA expression of profibrotic genes [4, 8]: reduced expression | levels of unbound (free) compound in plasma and liver [5]: higher in liver than plasma
